# Test: log P determination by HPLC (reversed-phase C18, EEC Directive 79/831 Annex V.A8)
# Type: physicochemical
# Conditions: pH 2.3, 0.1% aqueous phosphoric acid/acetonitrile gradient, 43° C
# Text: Mobile phases for determination in the acidic range: 0.1% aqueous phosphoric acid, acetonitrile; linear gradient from 10% acetonitrile to 90% acetonitrile.
Structure (SMILES),log P (pH 2.3),chromatographic logP
CN(C)c1ncc(-c2ccc(C3CCC(c4c(F)cccc4F)=N3)cc2)cn1 (stereo not shown) [Example 42],2.40,
CC(C)(C)OC(=O)N1CCN(c2ccc(-c3ccc(C4CCC(c5c(F)cccc5F)=N4)cc3)nn2)CC1 (stereo not shown) [Example 51],,2.07

# Same assay, conditions: reversed-phase C18 HPLC column, pH 2.3, pH 2.3, 0.1% aqueous phosphoric acid/acetonitrile gradient, 43° C
row,Structure (SMILES),chromatographic logP
1,"CCCN(CC)c1ncc(-c2ccc(C3CCC(c4c(F)cccc4F)=N3)cc2)cn1 (stereo not shown) [Example 1, N-(5-{4-[5-(2,6-difluorophenyl)-3,4-dihydro-2H-pyrrol-2-yl]phenyl}-2-pyrimidinyl)-N-ethyl-N-propylamine]",3.57
2,Fc1cccc(F)c1C1=NC(c2ccc(-c3ccc(C(F)(F)F)cn3)cc2)CC1 (stereo not shown) [Example 2],3.25
3,"Fc1cccc(F)c1C1=NC(c2ccc(-c3cnc(OCC(F)(F)F)nc3)cc2)CC1 (stereo not shown) [Example 3, 5-{4-[5-(2,6-difluorophenyl)-3,4-dihydro-2H-pyrrol-2-yl]phenyl}-2-(2,2,2-trifluorethoxy)pyrimidine]",2.88
4,Fc1cccc(F)c1C1=NC(c2ccc(-c3ccccn3)cc2)CC1 (stereo not shown) [Example 4],1.24
5,Fc1cccc(F)c1C1=NC(c2ccc(-c3ccc(Cl)cn3)cc2)CC1 (stereo not shown) [Example 5],2.86
6,N#CCc1ccc(-c2ccc(C3CCC(c4c(F)cccc4F)=N3)cc2)nc1 (stereo not shown) [Example 6],1.74
7,COC(=O)c1ccc(-c2ccc(C3CCC(c4c(F)cccc4F)=N3)cc2)nc1 (stereo not shown) [Example 7],2.39
8,CC(C)OC(=O)c1ccc(-c2ccc(C3CCC(c4c(F)cccc4F)=N3)cc2)nc1 (stereo not shown) [Example 8],3.89
9,CC(C)COC(=O)c1ccc(-c2ccc(C3CCC(c4c(F)cccc4F)=N3)cc2)nc1 (stereo not shown) [Example 9],3.28
10,CCN(CC)C(=O)c1ccc(-c2ccc(C3CCC(c4c(F)cccc4F)=N3)cc2)nc1 (stereo not shown) [Example 10],2.02
11,CCCN(CCC)C(=O)c1ccc(-c2ccc(C3CCC(c4c(F)cccc4F)=N3)cc2)nc1 (stereo not shown) [Example 11],2.7
12,CN(Cc1ccc(-c2ccc(C3CCC(c4c(F)cccc4F)=N3)cc2)nc1)S(=O)(=O)C(F)(F)F (stereo not shown) [Example 13],3.06
13,CC(C)N(Cc1ccc(-c2ccc(C3CCC(c4c(F)cccc4F)=N3)cc2)nc1)S(=O)(=O)C(F)(F)F (stereo not shown) [Example 14],3.48
14,O=S(=O)(N(Cc1ccc(-c2ccc(C3CCC(c4c(F)cccc4F)=N3)cc2)nc1)C1CC1)C(F)(F)F (stereo not shown) [Example 15],3.39
15,COCCN(Cc1ccc(-c2ccc(C3CCC(c4c(F)cccc4F)=N3)cc2)nc1)S(=O)(=O)C(F)(F)F (stereo not shown) [Example 16],3.21
16,CCN(Cc1ccc(-c2ccc(C3CCC(c4c(F)cccc4F)=N3)cc2)nc1)S(=O)(=O)C(F)(F)F (stereo not shown) [Example 17],3.35
17,Fc1cccc(F)c1C1=NC(c2ccc(-c3cccnc3)cc2)CC1 (stereo not shown) [Example 18],1.12
18,Fc1cccc(F)c1C1=NC(c2ccc(-c3ccc(Cl)nc3)cc2)CC1 (stereo not shown) [Example 19],2.58
19,Fc1cccc(F)c1C1=NC(c2ccc(-c3ccc(OCC(F)(F)F)nc3)cc2)CC1 (stereo not shown) [Example 20],3.66
20,Fc1cccc(F)c1C1=NC(c2ccc(-c3ccc(N4CCOCC4)nc3)cc2)CC1 (stereo not shown) [Example 21],1.44
21,CN(c1ccc(-c2ccc(C3CCC(c4c(F)cccc4F)=N3)cc2)nc1)S(=O)(=O)C(F)(F)F (stereo not shown) [Example 23],2.63
22,Fc1cccc(F)c1C1=NC(c2ccc(-c3ccc(N4CCCC4)nc3)cc2)CC1 (stereo not shown) [Example 24],1.45
23,Fc1cccc(F)c1C1=NC(c2ccc(-c3ncccn3)cc2)CC1 (stereo not shown) [Example 26],1.79
24,Fc1cccc(F)c1C1=NC(c2ccc(-c3cnc(Cl)nc3)cc2)CC1 (stereo not shown) [Example 27],1.98

row,Structure (SMILES),chromatographic logP
1,Fc1cccc(F)c1C1=NC(c2ccc(-c3cncnc3)cc2)CC1 (stereo not shown) [Example 28],1.49
2,CN(C)c1ncc(-c2ccc(C3CCC(c4c(F)cccc4F)=N3)cc2)cn1 (stereo not shown) [Example 29],3.62
3,CC(C)Oc1ncc(-c2ccc(C3CCC(c4c(F)cccc4F)=N3)cc2)cn1 (stereo not shown) [Example 30],2.61
4,CC(C)Sc1ncc(-c2ccc(C3CCC(c4c(F)cccc4F)=N3)cc2)cn1 (stereo not shown) [Example 31],3.49
5,Fc1cccc(F)c1C1=NC(c2ccc(-c3cnc(N4CCOCC4)nc3)cc2)CC1 (stereo not shown) [Example 32],2.18
6,CC(C)COc1ncc(-c2ccc(C3CCC(c4c(F)cccc4F)=N3)cc2)cn1 (stereo not shown) [Example 33],3.22
7,CC1CC(C)CN(c2ncc(-c3ccc(C4CCC(c5c(F)cccc5F)=N4)cc3)cn2)C1 (stereo not shown) [Example 34],4.39
8,Fc1cccc(F)c1C1=NC(c2ccc(-c3cnc(N4CCCCC4)nc3)cc2)CC1 (stereo not shown) [Example 35],3.4
9,CC(C)(C)C(=O)N1CCN(c2ncc(-c3ccc(C4CCC(c5c(F)cccc5F)=N4)cc3)cn2)CC1 (stereo not shown) [Example 36],2.81
10,CN(c1ncc(-c2ccc(C3CCC(c4c(F)cccc4F)=N3)cc2)cn1)S(=O)(=O)C(F)(F)F (stereo not shown) [Example 37],3.5
11,O=S(=O)(N(c1ncc(-c2ccc(C3CCC(c4c(F)cccc4F)=N3)cc2)cn1)C1CC1)C(F)(F)F (stereo not shown) [Example 38],3.63
12,Fc1cccc(F)c1C1=NC(c2ccc(-c3cnc(N4CCCC4)nc3)cc2)CC1 (stereo not shown) [Example 41],2.11
13,CCN(CC)c1ncc(-c2ccc(C3CCC(c4c(F)cccc4F)=N3)cc2)cn1 (stereo not shown) [Example 43],3
14,Fc1cccc(F)c1C1=NC(c2ccc(-c3ccc(OCC(F)(F)F)nn3)cc2)CC1 (stereo not shown) [Example 45],3.77
15,CC(C)Oc1ccc(-c2ccc(C3CCC(c4c(F)cccc4F)=N3)cc2)nn1 (stereo not shown) [Example 46],2.5
16,CC(C)Sc1ccc(-c2ccc(C3CCC(c4c(F)cccc4F)=N3)cc2)nn1 (stereo not shown) [Example 47],2.94
17,Fc1cccc(F)c1C1=NC(c2ccc(-c3ccc(N4CCOCC4)nn3)cc2)CC1 (stereo not shown) [Example 48],1.19
18,CCCNc1ccc(-c2ccc(C3CCC(c4c(F)cccc4F)=N3)cc2)nn1 (stereo not shown) [Example 49],1.26
19,O=C1CCCN1c1ccc(-c2ccc(C3CCC(c4c(F)cccc4F)=N3)cc2)nn1 (stereo not shown) [Example 50],1.85
20,CCCN(CC)c1ccc(-c2ccc(C3CCC(c4c(F)cccc4F)=N3)cc2)nn1 (stereo not shown) [Example 52],1.6
21,CN(c1ccc(-c2ccc(C3CCC(c4c(F)cccc4F)=N3)cc2)nn1)S(=O)(=O)C(F)(F)F (stereo not shown) [Example 53],1.66
22,CC(=O)N(c1ccc(-c2ccc(C3CCC(c4c(F)cccc4F)=N3)cc2)nn1)C(C)C (stereo not shown) [Example 54],2.03
23,CCCCN(CCCC)c1ccc(-c2ccc(C3CCC(c4c(F)cccc4F)=N3)cc2)nn1 (stereo not shown) [Example 55],2.56
24,CN(C(=O)C(C)(C)C)c1ccc(-c2ccc(C3CCC(c4c(F)cccc4F)=N3)cc2)nn1 (stereo not shown) [Example 56],2.29

row,Structure (SMILES),chromatographic logP
1,CCCCCCC(=O)N(c1ccc(-c2ccc(C3CCC(c4c(F)cccc4F)=N3)cc2)nn1)C1CCCC1 (stereo not shown) [Example 58],4.82
2,CCCCCCC(=O)N(c1ccc(-c2ccc(C3CCC(c4c(F)cccc4F)=N3)cc2)nn1)C1CCCCC1 (stereo not shown) [Example 59],4.35
3,CCCCCCN(C(C)=O)c1ccc(-c2ccc(C3CCC(c4c(F)cccc4F)=N3)cc2)nn1 (stereo not shown) [Example 60],3.11
4,CCCCCCN(C(=O)C(C)(C)C)c1ccc(-c2ccc(C3CCC(c4c(F)cccc4F)=N3)cc2)nn1 (stereo not shown) [Example 61],4.35
5,CCCN(C(=O)C(C)(C)C)c1ccc(-c2ccc(C3CCC(c4c(F)cccc4F)=N3)cc2)nn1 (stereo not shown) [Example 62],2.95
6,CC(C)(C)C(=O)N(c1ccc(-c2ccc(C3CCC(c4c(F)cccc4F)=N3)cc2)nn1)C1CCCC1 (stereo not shown) [Example 63],3.22
7,CCCCCCC(=O)N(CCC)c1ccc(-c2ccc(C3CCC(c4c(F)cccc4F)=N3)cc2)nn1 (stereo not shown) [Example 64],3.89
8,CC(C)(C)C(=O)N(c1ccc(-c2ccc(C3CCC(c4c(F)cccc4F)=N3)cc2)nn1)C1CCCCC1 (stereo not shown) [Example 65],3.56
9,CC(C)(C)C(=O)N(c1ccc(-c2ccc(C3CCC(c4c(F)cccc4F)=N3)cc2)nn1)C1CC1 (stereo not shown) [Example 66],2.53
10,CC(=O)N(C)c1ccc(-c2ccc(C3CCC(c4c(F)cccc4F)=N3)cc2)nn1 (stereo not shown) [Example 67],1.48
11,CCCCCC(=O)N(C)c1ccc(-c2ccc(C3CCC(c4c(F)cccc4F)=N3)cc2)nn1 (stereo not shown) [Example 68],3.24
12,Fc1cccc(F)c1C1=NC(c2ccc(-c3ccc(OC(C(F)(F)F)C(F)(F)F)nn3)cc2)CC1 (stereo not shown) [Example 69],3.7
13,CCOC(=O)N1CCN(c2ccc(-c3ccc(C4CCC(c5c(F)cccc5F)=N4)cc3)nn2)CC1 (stereo not shown) [Example 70],1.63
14,Fc1cccc(F)c1C1=NC(c2ccc(-c3ccc(OCCCC(F)(F)C(F)(F)F)nn3)cc2)CC1 (stereo not shown) [Example 73],3.58
15,FC(F)=C(F)CCOc1ccc(-c2ccc(C3CCC(c4c(F)cccc4F)=N3)cc2)nn1 (stereo not shown) [Example 74],2.95
16,CCN(C)c1ccc(-c2ccc(C3CCC(c4c(F)cccc4F)=N3)cc2)nn1 (stereo not shown) [Example 75],1.23
17,CCCCN(CC)c1ccc(-c2ccc(C3CCC(c4c(F)cccc4F)=N3)cc2)nn1 (stereo not shown) [Example 77],1.82
18,CCCN(CCC)c1ccc(-c2ccc(C3CCC(c4c(F)cccc4F)=N3)cc2)nn1 (stereo not shown) [Example 78],1.86
19,CN(C)c1ccc(-c2ccc(C3CCC(c4c(F)cccc4F)=N3)cc2)nn1 (stereo not shown) [Example 79],1.08
20,CCN(CC)c1ccc(-c2ccc(C3CCC(c4c(F)cccc4F)=N3)cc2)nn1 (stereo not shown) [Example 80],1.39
21,Fc1cccc(F)c1C1=NC(c2ccc(-c3ccc(N4CCCC4)nn3)cc2)CC1 (stereo not shown) [Example 81],1.28
22,CC(C)S(=O)(=O)c1ccc(-c2ccc(C3CCC(c4c(F)cccc4F)=N3)cc2)nn1 (stereo not shown) [Example 82],1.4
23,CC(=O)OCCCN(Cc1ccc(-c2ccc(C3CCC(c4c(F)cccc4F)=N3)cc2)nn1)C(C)=O (stereo not shown) [Example 89],1.77

# Source: patent publication US7179806B2, “Δ1-pyrrolines used as pesticides” (Bayer Cropscience AG, priority 2000, dated 2007)
